This passage reports IC50 results from patent US8519188B2, “Compounds which can be used for the treatment of cancers” (Marc-Henry Pitty, priority 2008, dated 2013).

The test system of assay [1] is ARH-77/Dox doxorubicin-resistant myeloma cell line. The assay is described as follows: Cell proliferation (CellTiter 96 AQueous MTS/PMS), ARH-77/Dox. It counts as cell-based. Conditions: Homo sapiens, 72 hours of incubation, read-out: CI50 for various cell lines (nM) ARH-77/Dox. As for the experimental part: (§1) The effects of the compounds of the invention on the proliferation of cancer cells were studied on various human cancer cell lines of various tissue origins (MCF-7: breast cancer, MCF-7/adr adriamycin-resistant breast cancer, ARH-77: myeloma, ARH-77/Dox: doxorubicin (other name for adriamycin)-resistant myeloma, HL-60: acute promyelocytic leukaemia, HL-60/R10: doxorubicin-resistant acute promyelocytic leukaemia). The cancer cells used for this study were incubated at 37° C. in the presence of one of the compounds of the invention added to the culture medium at various concentrations.
(§2) The cancer cell lines originate from the ATCC (American Type Culture Collection) in the case of MCF-7, ARH-77 and HL-60, from Pharmacell (Paris, France) for HL-60/R10, from Oncodesign (Dijon, France) for ARH-77/Dox and from the Pitié Salpetrière Hospital for MCF-7/adr. They were cultivated in a RPMI 1640 medium containing 2 mM L-glutamine and supplemented with 10% foetal calf serum. All the cell lines were maintained in culture at 37° C. in a moist atmosphere containing 5% CO2. Cell proliferation was evaluated using the “CellTiter 96® AQueous” reagent (Promega, Wis., USA) while adhering to the manufacturer's instructions. The cells were seeded in 96-well culture plates in a proportion of from 5,000 to 10,000 cells per well in 200 μl of culture medium. After 24 hours of preincubation at 37° C., the compounds of the invention dissolved in dimethyl sulphoxide (DMSO) were added individually to each of the wells in a proportion of 2 μl per well. After 72 hours of incubation at 37° C. in a moist atmosphere containing 5% CO2, 40 μL of a MTS/PMS ([3-(4,5-dimethylthiazol-2-yl)-5-(3-carboxymethoxyphenyl)-2-(4-sulphophenyl)-2H-tetrazolium phenazine methosulphate) solution were added to each well.

Assay [2] relates to MCF-7 breast cancer cell line. In words: Cell proliferation (CellTiter 96 AQueous MTS/PMS), MCF-7. Conditions: Homo sapiens, MCF7; MCF-7; 72 hours of incubation; concentration that induces the death of 50% of the cells; read-out: CI50 for various cell lines (nM) MCF-7. It counts as cell-based.
Assay [3] deals with HL-60/R10 doxorubicin-resistant acute promyelocytic leukaemia cell line. The assay is described as follows: Cell proliferation (CellTiter 96 AQueous MTS/PMS), HL-60/R10. To be noted: Homo sapiens; HL-60/R10; 72 hours of incubation; read-out: CI50 for various cell lines (nM) HL-60/R10. The class given is cell-based, human. The procedure:
as §1, §2

A further assay has as its system ARH-77 myeloma cell line. In words: Cell proliferation (CellTiter 96 AQueous MTS/PMS), ARH-77. The class given is cell-based. To be noted: Homo sapiens, 72 hours of incubation, read-out: CI50 for various cell lines (nM) ARH-77. The procedure: as §1, §2
In assay [4] the test system is MCF-7/adr adriamycin-resistant breast cancer cell line. In words: Cell proliferation (CellTiter 96 AQueous MTS/PMS), MCF-7/adr. The class given is cell-based. Conditions: Homo sapiens, NCI/ADR-RES; MCF-7/adr; 72 hours of incubation; concentration that induces the death of 50% of the cells; read-out: CI50 for various cell lines (nM) MCF-7/adr.
Assay [5] has as its system HL-60 acute promyelocytic leukaemia cell line. The assay is described as follows: Cell proliferation (CellTiter 96 AQueous MTS/PMS), HL-60. The class given is cell-based, human. To be noted: Homo sapiens; HL-60; 72 hours of incubation; read-out: CI50 for various cell lines (nM) HL-60. As for the experimental part:
as §1, §2

With `C#CC(=O)N(c1ccc(C(F)(F)F)cc1)C(C(=O)NC1CCCCC1)c1cccs1` (stereo not drawn) [Compound 2, Propynoic Acid (cyclohexylcarbamoylthiophen-2-yl-methyl)-(4-trifluoromethylphenyl)amide], the IC50 amounted to 6 nM in assay [1]; 150 nM in assay [2]; 95 nM in assay [3]; 92 nM in the assay with ARH-77 myeloma cell line; 0.7 nM in assay [4]; 2080 nM in assay [5].

With `C#CC(=O)N(c1cccc(C(F)(F)F)c1)C(C(=O)NC1CCCCC1)c1cccs1` (stereo not drawn) [Compound 3, Propynoic Acid (cyclohexylcarbamoylthiophen-2-yl-methyl)-(3-trifluoromethylphenyl)amide], the IC50 in assay [1] turned out to be 5 nM; in assay [2] it was 275 nM; in assay [3], 46 nM; in the assay on ARH-77 myeloma cell line, 58 nM; in assay [4] it was 2.6 nM; in assay [5] it was 2960 nM.
